Source: US8653100B2 (AbbVie Inc., priority 2008, dated 2014)
Counter-ions that a name gives are not always drawn.

molecular target: human GlyT1c (Homo sapiens (Human), UniProt P48067); assay: [3H]-Glycine uptake into recombinant CHO cells expressing human GlyT1; format: cell-based; conditions: hGlyT1c_5_CHO cells, 200 nM [3H]-glycine
Description: [^3H]-Glycine uptake into recombinant CHO cells expressing human GlyT1: Human GlyT1c expressing recombinant hGlyT1c—5_CHO cells were plated at 20,000 cells per well in 96 well Cytostar-T scintillation microplates (Amersham Biosciences) and cultured to sub-confluency for 24 h. […] The plates were placed in a Wallac Microbeta (PerkinElmer) and continuously counted by solid phase scintillation spectrometry during up to 3 hours. […] IC50 calculations were made by four-parametric logistic nonlinear regression analysis (GraphPad Prism) using determinations within the range of linear increase of [^3H]-glycine incorporation between 60 and 120 min.

Sequence of human GlyT1c (P48067 whole entry): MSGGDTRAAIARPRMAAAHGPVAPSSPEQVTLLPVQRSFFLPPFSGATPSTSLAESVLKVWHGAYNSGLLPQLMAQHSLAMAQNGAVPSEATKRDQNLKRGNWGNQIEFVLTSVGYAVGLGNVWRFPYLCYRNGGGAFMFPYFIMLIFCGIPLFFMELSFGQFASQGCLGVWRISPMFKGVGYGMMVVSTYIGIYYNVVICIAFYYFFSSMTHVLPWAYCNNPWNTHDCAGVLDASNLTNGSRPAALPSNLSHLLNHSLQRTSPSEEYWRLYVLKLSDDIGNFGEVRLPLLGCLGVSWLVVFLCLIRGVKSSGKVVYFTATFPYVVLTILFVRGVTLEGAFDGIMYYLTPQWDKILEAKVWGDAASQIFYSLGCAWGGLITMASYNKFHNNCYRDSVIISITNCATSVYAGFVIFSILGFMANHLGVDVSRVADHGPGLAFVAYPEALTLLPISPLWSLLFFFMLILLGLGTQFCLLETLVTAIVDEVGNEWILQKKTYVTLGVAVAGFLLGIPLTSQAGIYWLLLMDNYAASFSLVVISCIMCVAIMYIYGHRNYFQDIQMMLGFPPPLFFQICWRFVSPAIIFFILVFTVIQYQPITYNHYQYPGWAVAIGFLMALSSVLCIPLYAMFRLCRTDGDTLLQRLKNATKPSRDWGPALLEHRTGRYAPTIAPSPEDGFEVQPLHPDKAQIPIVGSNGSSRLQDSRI

Structure (SMILES)	IC50
CCCS(=O)(=O)N1CCN(S(=O)(=O)NCCOc2ccc3c(c2)C(C2(c4ccc(Cl)cc4)CCC2)NCC3)CC1 (stereo not shown) [Example 56, N-(2-(1-(1-(4-Chlorophenyl)cyclobutyl)-1,2,3,4-tetrahydroisoquinolin-7-yloxy)ethyl)-4-(propylsulfonyl)piperazine-1-sulfonamide hydrochloride]	≤ 10 µM
O=C(NCCOc1ccc2c(c1)C(C1(c3ccc(Cl)cc3)CCC1)NCC2)Nc1cccnc1 (stereo not shown) [Example 42, 1-(2-{1-[1-(4-Chloro-phenyl)-cyclobutyl]-1,2,3,4-tetrahydro-isoquinolin-7-yloxy}-ethyl)-3-pyridin-3-yl-urea hydrochloride]	≤ 100 µM
CC(=O)NCCOc1ccc2c(c1)C(C1(c3ccc(Cl)cc3)CCC1)NCC2 (stereo not shown) [Example 6, N-(2-{1-[1-(4-Chloro-phenyl)-cyclobutyl]-1,2,3,4-tetrahydro-isoquinolin-7-yloxy}-ethyl)-acetamide]	≤ 10 µM
CCCS(=O)(=O)NCCOc1ccc2c(c1)C(C1(c3ccc(Cl)cc3)CCC1)N(C(=N)N)CC2 (stereo not shown) [Example 47, 1-[1-(4-Chloro-phenyl)-cyclobutyl]-7-[2-(propane-1-sulfonylamino)-ethoxy]-3,4-dihydro-1H-isoquinoline-2-carboxamidine]	≤ 10 µM
O=C(COc1ccc2c(c1)C(C1(c3ccc(Cl)cc3)CCC1)NCC2)N1CCNCC1 (stereo not shown) [Example 48, 2-{1-[1-(4-Chloro-phenyl)-cyclobutyl]-1,2,3,4-tetrahydro-isoquinolin-7-yloxy}-1-piperazin-1-yl-ethanone]	≤ 10 µM
O=C(NCCOc1ccc2c(c1)C(C1(c3ccc(Cl)cc3)CCC1)NCC2)Nc1ccccc1 (stereo not shown) [Example 34, hydrochloride]	≤ 10 µM
Cn1cc(S(=O)(=O)NCCOc2ccc3c(c2)C(C2(c4ccc(Cl)cc4)CCC2)NCC3)cn1 (stereo not shown) [Example 37, 1-Methyl-1H-pyrazole-4-sulfonic acid (2-{1-[1-(4-chloro-phenyl)-cyclobutyl]-1,2,3,4-tetrahydro-isoquinolin-7-yloxy}-ethyl)-amide hydrochloride]	≤ 0.1 µM
CCCS(=O)(=O)NCCOc1ccc2c(c1)C(C1(c3cccc(Cl)c3)CCC1)N(CCN)CC2 (stereo not shown) [Example 78, N-[2-({2-(2-Aminoethyl)-1-[1-(3-chlorophenyl)cyclobutyl]-1,2,3,4-tetrahydroisoquinolin-7-yl}oxy)ethyl]propane-1-sulfonamide bis(trifluoroacetate)]	≤ 10 µM
O=S(=O)(CCCOc1ccc2c(c1)C(C1(c3ccc(Cl)cc3)CCC1)NCC2)N1CCOCC1 (stereo not shown) [Example 81, 1-[1-(4-Chlorophenyl)cyclobutyl]-7-[3-(morpholin-4-ylsulfonyl)propoxy]-1,2,3,4-tetrahydroisoquinoline hydrochloride]	≤ 10 µM
CCCS(=O)(=O)NCCOc1ccc2c(c1)C(C1(c3ccc(F)cc3)CCC1)N(CC(F)(F)F)CC2 (stereo not shown) [Example 71, N-[2-({1-[1-(4-Fluorophenyl)cyclobutyl]-2-(2,2,2-trifluoroethyl)-1,2,3,4-tetrahydroisoquinolin-7-yl}oxy)ethyl]propane-1-sulfonamide hydrochloride]	≤ 1 µM
O=S(=O)(NCCOc1ccc2c(c1)C(C1(c3ccc(Cl)cc3)CCC1)NCC2)N1CCNCC1 (stereo not shown) [Example 55, N-(2-(1-(1-(4-Chlorophenyl)cyclobutyl)-1,2,3,4-tetrahydroisoquinolin-7-yloxy)ethyl)piperazine-1-sulfonamide dihydrochloride]	≤ 10 µM
O=S(=O)(NCCOc1ccc2c(c1)C(C1(c3ccc(Cl)cc3)CCC1)NCC2)C1CCCNC1 (stereo not shown) [Example 61, N-(2-(1-(1-(4-Chlorophenyl)cyclobutyl)-1,2,3,4-tetrahydroisoquinolin-7-yloxy)ethyl)piperidine-3-sulfonamide dihydrochloride]	≤ 0.1 µM
CCCS(=O)(=O)NCCOc1ccc2c(c1)CCNC2C1(c2ccc(Cl)cc2)CCC1 (stereo not shown) [Example 68, N-[2-({1-[1-(4-Chlorophenyl)cyclobutyl]-1,2,3,4-tetrahydroisoquinolin-6-yl}oxy)ethyl]propane-1-sulfonamide hydrochloride]	≤ 10 µM
CCCS(=O)(=O)NCCOc1ccc2c(c1)C(C(c1ccc(Cl)cc1)C(C)C)NCC2 (stereo not shown) [Example 60, dihydrochloride]	≤ 10 µM
O=S(=O)(NCCOc1ccc2c(c1)C(C1(c3ccc(Cl)cc3)CC1)NCC2)c1cccnc1 (stereo not shown) [Example 85, N-[2-({1-[1-(4-Chlorophenyl)cyclopropyl]-1,2,3,4-tetrahydroisoquinolin-7-yl}oxy)ethyl]pyridine-3-sulfonamide]	≤ 0.1 µM
Cn1cc(S(=O)(=O)NCCOc2ccc3c(c2)C(C2(c4ccc(Cl)cc4)CC(F)(F)C2)NCC3)cn1 (stereo not shown) [Example 43, 1-Methyl-1H-pyrazole-4-sulfonic acid (2-{1-[1-(4-chloro-phenyl)-3,3-difluoro-cyclobutyl]-1,2,3,4-tetrahydro-isoquinolin-7-yloxy}-ethyl)-amidehydrochloride]	≤ 0.1 µM

Structure (SMILES)	IC50
Cc1nn(C)cc1S(=O)(=O)NCCOc1ccc2c(c1)C(C1(c3ccc(Cl)cc3)CCC1)NCC2 (stereo not shown) [Example 35, 1,3-Dimethyl-1H-pyrazole-4-sulfonic acid (2-{1-[1-(4-chloro-phenyl)-cyclobutyl]-1,2,3,4-tetrahydro-isoquinolin-7-yloxy}-ethyl)-amide hydrochloride]	≤ 1 µM
CCCS(=O)(=O)NCCOc1ccc2c(c1)C(C1(c3ccc(Cl)cc3)CC1)NCC2 (stereo not shown) [Example 87, N-[2-({1-[1-(4-Chlorophenyl)cyclopropyl]-1,2,3,4-tetrahydroisoquinolin-7-yl}oxy)ethyl]propane-1-sulfonamide hydrochloride]	≤ 0.1 µM
CCS(=O)(=O)N1CCN(c2ccc3c(c2)C(C2(c4ccc(Cl)cc4)CCC2)NCC3)CC1 (stereo not shown) [Example 41, 1-[1-(4-Chloro-phenyl)-cyclobutyl]-7-(4-ethanesulfonyl-piperazin-1-yl)-1,2,3,4-tetrahydro-isoquinoline]	≤ 100 µM
CCCS(=O)(=O)NCCOc1ccc2c(c1)C(C1(c3ccc(F)cc3)CCC1)N(N=O)CC2 (stereo not shown) [Example 74, N-[2-({1-[1-(4-Fluorophenyl)cyclobutyl]-2-nitroso-1,2,3,4-tetrahydroisoquinolin-7-yl}oxy)ethyl]propane-1-sulfonamide]	≤ 10 µM
CCCNC(=O)NCCOc1ccc2c(c1)C(C1(c3ccc(Cl)cc3)CCC1)NCC2 (stereo not shown) [Example 33, 1-(2-{1-[1-(4-Chloro-phenyl)-cyclobutyl]-1,2,3,4-tetrahydro-isoquinolin-7-yloxy}-ethyl)-3-propyl-urea hydrochloride]	≤ 10 µM
CCCS(=O)(=O)NCCOc1ccc2c(c1)C(C1(c3ccc(Cl)cc3)CCC1)N(CC#N)CC2 (stereo not shown) [Example 80, N-[2-({1-[1-(4-cChlorophenyl)cyclobutyl]-2-(cyanomethyl)-1,2,3,4-tetrahydroisoquinolin-7-yl}oxy)ethyl]propane-1-sulfonamide hydrochloride]	≤ 0.1 µM
CC(C)C(=O)NCCOc1ccc2c(c1)C(C1(c3ccc(Cl)cc3)CCC1)NCC2 (stereo not shown) [Example 5, N-(2-{1-[1-(4-Chloro-phenyl)-cyclobutyl]-1,2,3,4-tetrahydro-isoquinolin-7-yloxy}-ethyl)-isobutyramide]	≤ 100 µM
CCCS(=O)(=O)NCCOc1ccc2c(c1)C(C1(c3ccc(F)cc3)CCC1)N(C(=O)C(F)(F)F)CC2 (stereo not shown) [Example 70, N-[2-({1-[1-(4-Fluorophenyl)cyclobutyl]-2-(trifluoroacetyl)-1,1,3,4-tetrahydroisoquinolin-7-yl}oxy)ethyl]propane-1-sulfonamide]	≤ 100 µM
CCCS(=O)(=O)NCCOc1ccc2c(c1)C(C1(c3ccc(Cl)cc3)CC(F)(F)C1)NCC2 (stereo not shown) [Example 44, Propane-1-sulfonic acid (2-{1-[1-(4-chloro-phenyl)-3,3-difluoro-cyclobutyl]-1,2,3,4-tetrahydro-isoquinolin-7-yloxy}-ethyl)-amide hydrochloride]	≤ 0.1 µM
CC(C)S(=O)(=O)NCCOc1ccc2c(c1)C(C1(c3ccc(Cl)cc3)CCC1)NCC2 (stereo not shown) [Example 38, Propane-2-sulfonic acid (2-{1-[1-(4-chloro-phenyl)-cyclobutyl]-1,2,3,4-tetrahydro-isoquinolin-7-yloxy}-ethyl)-amide hydrochloride]	≤ 0.1 µM
CCCNc1ccc(S(=O)(=O)NCCOc2ccc3c(c2)C(C2(c4ccc(Cl)cc4)CCC2)NCC3)cn1 (stereo not shown) [Example 59, N-(2-(1-(1-(4-Chlorophenyl)cyclobutyl)-1,2,3,4-tetrahydroisoquinolin-7-yloxy)ethyl)-6-(propylamino)pyridine-3-sulfonamide hydrochloride]	≤ 10 µM
CCCS(=O)(=O)NCCOc1ccc2c(c1)C(C1(c3ccccc3)CCC1)NCC2 (stereo not shown) [Example 50, 1-(1-Phenylcyclobutyl)-7-(2-(propylsulfonamido)ethoxy)-1,2,3,4-tetrahydroisoquinolinium chloride]	≤ 0.1 µM
CCCS(=O)(=O)NCCOc1ccc2c(c1)C(C1(c3cccc(Cl)c3)CCC1)N(CC#N)CC2 (stereo not shown) [Example 77, N-[2-({1-[1-(3-Chlorophenyl)cyclobutyl]-2-(cyanomethyl)-1,2,3,4-tetrahydroisoquinolin-7-yl}oxy)ethyl]propane-1-sulfonamide]	≤ 1 µM
O=S(=O)(NCCOc1ccc2c(c1)C(C1(c3ccc(F)cc3)CCC1)NCC2)c1cccnc1 (stereo not shown) [Example 66, N-[2-({1-[1-(4-Fluorophenyl)cyclobutyl]-1,2,3,4-tetrahydroisoquinolin-7-yl}oxy)ethyl]pyridine-3-sulfonamide hydrochloride]	≤ 0.1 µM
O=S(=O)(NCCOc1ccc2c(c1)C(C1(c3ccc(Cl)cc3)CCC1)NCC2)c1ccc(NCc2ccccc2)nc1 (stereo not shown) [Example 58, 6-(Benzylamino)-N-(2-(1-(1-(4-chlorophenyl)cyclobutyl)-1,2,3,4-tetrahydroisoquinolin-7-yloxy)ethyl)pyridine-3-sulfonamide hydrochloride]	≤ 1 µM
